Measurements published in ChEMBL document CHEMBL5137044, “Expansion of the S-CN-DABO scaffold to exploit the impact on inhibitory activities against the non-nucleoside HIV-1 reverse transcriptase” (Eur J Med Chem, 2022).

How the values were obtained:
[1] = system: Human immunodeficiency virus 1; test: Antiviral activity against […] HIV-1 infected in human MT4 cells assessed as reduction in virus-induced cytopathic effect incubated for 5 days by MTT assay; format: functional, organism-based; conditions: Human immunodeficiency virus 1, MT4, 120 h
[2] = Cytotoxicity against human MT4 cells assessed as cell growth inhibition incubated for 5 days by MTT assay; format: toxicity, cell-based; conditions: time 5 day
[3] = system: Human immunodeficiency virus 1; test: Antiviral activity against drug-resistant HIV-1 Y181C mutant infected in human MT4 cells assessed as reduction in virus-induced cytopathic effect incubated for 5 days by MTT assay; format: functional, organism-based; conditions: Human immunodeficiency virus 1, Y181C mutant, MT4, 120 h
[4] = target: Human immunodeficiency virus type 1 reverse transcriptase (Human immunodeficiency virus 1, UniProt Q72547); test: Inhibition of recombinant wild-type p66/p51 HIV-1 reverse transcriptase incubated for 40 mins by picogreen dye-based spectrofluorometric analysis
Cytochrome P450 2C9 = Cytochrome P450 2C9 (Homo sapiens, UniProt P11712); test: Inhibition of CYP2C9 in human liver microsomes using […] as substrate incubated for 15 to 40 mins in presence of NADPH; format: ADME, Microsome
Sequence of Cytochrome P450 2C9 (P11712 whole entry): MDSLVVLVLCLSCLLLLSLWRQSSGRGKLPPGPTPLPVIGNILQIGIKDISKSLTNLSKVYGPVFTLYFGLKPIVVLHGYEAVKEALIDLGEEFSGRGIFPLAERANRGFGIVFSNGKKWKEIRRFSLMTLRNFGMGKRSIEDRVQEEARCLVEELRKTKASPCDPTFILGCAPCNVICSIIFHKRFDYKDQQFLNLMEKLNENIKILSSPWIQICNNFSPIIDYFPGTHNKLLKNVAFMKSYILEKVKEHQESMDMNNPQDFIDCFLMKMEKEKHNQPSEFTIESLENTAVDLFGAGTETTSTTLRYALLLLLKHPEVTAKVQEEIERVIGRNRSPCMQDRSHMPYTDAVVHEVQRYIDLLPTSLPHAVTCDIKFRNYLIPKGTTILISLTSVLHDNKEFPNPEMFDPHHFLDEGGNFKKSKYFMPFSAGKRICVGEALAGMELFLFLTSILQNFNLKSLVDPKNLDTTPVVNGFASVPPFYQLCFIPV

Cytochrome P450 1A2 = target: T1, Cytochrome P450 1A2 (Homo sapiens, UniProt P05177); test: Inhibition of CYP1A2 in human liver microsomes using phenacetin as substrate incubated for 15 to 40 mins in presence of NADPH; format: ADME, Microsome
T1 sequence (P05177 whole entry): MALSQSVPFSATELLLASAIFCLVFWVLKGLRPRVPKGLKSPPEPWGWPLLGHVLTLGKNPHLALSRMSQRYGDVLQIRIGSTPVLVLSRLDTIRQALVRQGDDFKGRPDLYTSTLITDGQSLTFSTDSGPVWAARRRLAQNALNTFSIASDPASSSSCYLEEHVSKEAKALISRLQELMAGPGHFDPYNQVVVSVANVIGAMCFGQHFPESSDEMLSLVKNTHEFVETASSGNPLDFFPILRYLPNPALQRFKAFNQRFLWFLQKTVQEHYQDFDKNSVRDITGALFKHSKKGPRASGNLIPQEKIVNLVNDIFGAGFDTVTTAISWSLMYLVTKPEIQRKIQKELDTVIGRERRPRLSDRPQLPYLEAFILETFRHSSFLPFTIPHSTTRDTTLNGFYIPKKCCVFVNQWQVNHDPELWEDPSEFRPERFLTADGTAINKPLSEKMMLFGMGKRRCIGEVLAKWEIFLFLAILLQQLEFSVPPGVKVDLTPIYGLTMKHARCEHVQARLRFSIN

Cytochrome P450 2C19 = Cytochrome P450 2C19 (Homo sapiens, UniProt P33261); test: Inhibition of CYP2C19 in human liver microsomes using s-mephenytoin as substrate incubated for 15 to 40 mins in presence of NADPH; format: ADME, Microsome
Sequence of Cytochrome P450 2C19 (P33261 whole entry): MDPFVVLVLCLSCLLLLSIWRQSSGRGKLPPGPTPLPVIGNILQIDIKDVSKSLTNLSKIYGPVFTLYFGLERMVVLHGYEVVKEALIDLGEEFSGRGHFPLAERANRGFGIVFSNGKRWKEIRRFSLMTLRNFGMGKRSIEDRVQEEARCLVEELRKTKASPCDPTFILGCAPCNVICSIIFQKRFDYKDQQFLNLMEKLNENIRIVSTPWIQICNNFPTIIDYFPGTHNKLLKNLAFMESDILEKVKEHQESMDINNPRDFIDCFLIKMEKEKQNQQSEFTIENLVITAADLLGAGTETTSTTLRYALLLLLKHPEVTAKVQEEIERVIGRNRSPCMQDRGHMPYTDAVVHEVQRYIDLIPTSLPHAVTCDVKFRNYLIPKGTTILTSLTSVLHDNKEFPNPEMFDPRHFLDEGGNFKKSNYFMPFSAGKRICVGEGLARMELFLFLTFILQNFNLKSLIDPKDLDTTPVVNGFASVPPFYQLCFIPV

Cytochrome P450 2D6 = Cytochrome P450 2D6 (Homo sapiens, UniProt P10635); test: Inhibition of CYP2D6 in human liver microsomes using dextromethorphan as substrate incubated for 15 to 40 mins in presence of NADPH; format: ADME, Microsome
Sequence of Cytochrome P450 2D6 (P10635 whole entry): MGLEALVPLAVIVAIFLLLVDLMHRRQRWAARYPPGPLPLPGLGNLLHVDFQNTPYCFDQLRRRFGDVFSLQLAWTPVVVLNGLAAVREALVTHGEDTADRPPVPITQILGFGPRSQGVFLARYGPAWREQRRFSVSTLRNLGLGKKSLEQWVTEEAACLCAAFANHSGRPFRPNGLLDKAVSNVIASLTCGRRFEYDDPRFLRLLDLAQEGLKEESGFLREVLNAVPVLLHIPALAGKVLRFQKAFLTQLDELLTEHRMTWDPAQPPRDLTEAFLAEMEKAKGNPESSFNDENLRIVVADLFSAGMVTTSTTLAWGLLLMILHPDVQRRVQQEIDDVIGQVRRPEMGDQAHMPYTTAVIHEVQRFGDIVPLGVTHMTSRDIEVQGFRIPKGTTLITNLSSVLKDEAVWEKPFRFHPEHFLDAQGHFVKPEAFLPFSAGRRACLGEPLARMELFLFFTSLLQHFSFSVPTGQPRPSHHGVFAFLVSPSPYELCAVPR

Cytochrome P450 3A4 = Cytochrome P450 3A4 (Homo sapiens, UniProt P08684); test: Inhibition of CYP3A4M in human liver microsomes using midazolam as substrate incubated for 15 to 40 mins in presence of NADPH; format: ADME, Microsome
Sequence of Cytochrome P450 3A4 (P08684 whole entry): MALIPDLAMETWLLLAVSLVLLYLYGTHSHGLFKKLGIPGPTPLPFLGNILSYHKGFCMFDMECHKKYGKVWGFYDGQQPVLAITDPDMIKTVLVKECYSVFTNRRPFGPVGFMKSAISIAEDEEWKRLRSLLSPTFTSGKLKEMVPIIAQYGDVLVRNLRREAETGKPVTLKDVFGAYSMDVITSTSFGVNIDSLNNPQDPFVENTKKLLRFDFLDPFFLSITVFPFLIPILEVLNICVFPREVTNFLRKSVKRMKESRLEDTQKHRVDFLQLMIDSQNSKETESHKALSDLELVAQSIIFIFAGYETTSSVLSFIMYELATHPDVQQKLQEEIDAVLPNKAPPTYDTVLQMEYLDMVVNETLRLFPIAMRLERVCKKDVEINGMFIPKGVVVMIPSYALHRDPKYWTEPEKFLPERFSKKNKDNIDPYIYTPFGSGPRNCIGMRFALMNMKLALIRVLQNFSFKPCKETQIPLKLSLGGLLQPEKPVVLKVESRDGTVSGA

[5] = Half life in Sprague-Dawley rat at 1 mg/kg,iv measured upto 24 hrs by LC-MS/MS analysis; format: ADME, organism-based; conditions: in vivo
[6] = Tmax in Sprague-Dawley rat at 1 mg/kg,iv measured upto 24 hrs by LC-MS/MS analysis; format: ADME, organism-based; conditions: in vivo
[7] = Cmax in Sprague-Dawley rat at 10 mg/kg,po measured upto 24 hrs by LC-MS/MS analysis; format: ADME, organism-based; parameters: dose 10 mg/kg, time < 24 hrs, route po; conditions: in vivo
[8] = Cmax in Sprague-Dawley rat at 1 mg/kg,iv measured upto 24 hrs by LC-MS/MS analysis; format: ADME, organism-based; parameters: dose 1 mg/kg, time < 24 hrs, route iv; conditions: in vivo
[9] = C0 in Sprague-Dawley rat at 1 mg/kg,iv measured upto 24 hrs by LC-MS/MS analysis; format: ADME, organism-based; conditions: in vivo
[10] = AUC (0 to t) in Sprague-Dawley rat at 10 mg/kg,po measured upto 24 hrs by LC-MS/MS analysis; format: ADME, organism-based; parameters: dose 10 mg/kg, time < 24 hrs, route po; conditions: in vivo
[11] = AUC (0 to t) in Sprague-Dawley rat at 1 mg/kg,iv measured upto 24 hrs by LC-MS/MS analysis; format: ADME, organism-based; parameters: dose 1 mg/kg, time < 24 hrs, route iv; conditions: in vivo
[12] = AUC (0 to infinity) in Sprague-Dawley rat at 10 mg/kg,po measured upto 24 hrs by LC-MS/MS analysis; format: ADME, organism-based; parameters: dose 10 mg/kg, time < 24 hrs, route po; conditions: in vivo
[13] = AUC (0 to infinity) in Sprague-Dawley rat at 1 mg/kg,iv measured upto 24 hrs by LC-MS/MS analysis; format: ADME, organism-based; parameters: dose 1 mg/kg, time < 24 hrs, route iv; conditions: in vivo
[14] = Apparent volume of distribution in Sprague-Dawley rat at 10 mg/kg,po measured upto 24 hrs by LC-MS/MS analysis; format: ADME, organism-based; conditions: in vivo
[15] = Clearance in Sprague-Dawley rat at 1 mg/kg,iv measured upto 24 hrs by LC-MS/MS analysis; format: ADME, organism-based; conditions: in vivo
[16] = MRT(0 to t) in Sprague-Dawley rat at 10 mg/kg,po measured upto 24 hrs by LC-MS/MS analysis; format: ADME, organism-based; conditions: in vivo
[17] = MRT(0 to t) in Sprague-Dawley rat at 1 mg/kg,iv measured upto 24 hrs by LC-MS/MS analysis; format: ADME, organism-based; conditions: in vivo
[18] = MRT (0 to infinity) in Sprague-Dawley rat at 10 mg/kg,po measured upto 24 hrs by LC-MS/MS analysis; format: ADME, organism-based; conditions: in vivo
[19] = MRT (0 to infinity) in Sprague-Dawley rat at 1 mg/kg,iv measured upto 24 hrs by LC-MS/MS analysis; format: ADME, organism-based; conditions: in vivo
[20] = Oral bioavailability in Sprague-Dawley rat at 10 mg/kg measured upto 24 hrs by LC-MS/MS analysis; format: ADME, organism-based; conditions: in vivo
[21] = Acute toxicity in mouse assessed as body weight change at 1 g/Kg,IG monitored for 2 weeks; conditions: in vivo, po, 1000 mg/kg, 336 h
[22] = Acute toxicity in mouse assessed as mouse death at 1 g/Kg,IG monitored for 2 weeks; conditions: in vivo, po, 1000 mg/kg, 336 h
[23] = Acute toxicity in healthy mouse assessed as brain damage at 1 g/Kg,IG monitored for 2 weeks by HE staining based assay; format: tissue-based; conditions: in vivo, po, 1000 mg/kg, 336 h
[24] = Acute toxicity in healthy mouse assessed as heart damage at 1 g/Kg,IG monitored for 2 weeks by HE staining based assay; format: tissue-based; conditions: in vivo, po, 1000 mg/kg, 336 h
[25] = Acute toxicity in healthy mouse assessed as lung damage at 1 g/Kg,IG monitored for 2 weeks by HE staining based assay; format: tissue-based; conditions: in vivo, po, 1000 mg/kg, 336 h
[26] = Acute toxicity in mouse assessed as behavioral abnormalities at 1 g/Kg,IG monitored for 2 weeks; conditions: in vivo, po, 1000 mg/kg, 336 h
[27] = Fold resistance, ratio of EC50 for antiviral activity against drug-resistant HIV-1 Y181C mutant infected in human MT4 cells to EC50 for antiviral activity against […] HIV-1 infected in human MT4 cells; format: functional
[28] = Fold resistance, ratio of EC50 for antiviral activity against drug-resistant HIV-1 Y188L mutant infected in human MT4 cells to EC50 for antiviral activity against […] HIV-1 infected in human MT4 cells; format: functional
[29] = Fold resistance, ratio of EC50 for antiviral activity against drug-resistant HIV-1 E138K mutant infected in human MT4 cells to EC50 for antiviral activity against […] HIV-1 infected in human MT4 cells; format: functional

Cc1c(C(C#N)c2c(F)cccc2F)nc(SC(C)C)[nH]c1=O (centres undefined)
EC50 [1]: 0.0208 µM
CC50 at 120 h [2]: 137 µM
EC50 [3]: 0.75 µM
IC50 [4]: 0.079 µM
IC50 (Cytochrome P450 2C9): 40.4 µM
IC50 (Cytochrome P450 1A2): > 50 µM
IC50 (Cytochrome P450 2C19): 35.3 µM
IC50 (Cytochrome P450 2D6): > 50 µM
IC50 (Cytochrome P450 3A4): > 50 µM
half-life [5]: 4.07 h
Tmax [6]: 4.8 min
Cmax [7]: 15300 ng/mL
Cmax [8]: 7620 ng/mL
C0 at 24 h [9]: 9310 ng/mL
AUC(0-t) at 24 h [10]: 133000 ng·h/mL
AUC(0-t) at 24 h [11]: 8280 ng·h/mL
AUC(0-inf) [12]: 136000 ng·h/mL
AUC(0-inf) [13]: 8320 ng·h/mL
Vz [14]: 0.47537 L/kg
clearance [15]: 2.13 mL/min/kg
MRT last at 24 h [16]: 6.2 h
MRT last at 24 h [17]: 2.25 h
MRT inf [18]: 6.82 h
MRT inf [19]: 2.41 h
F [20]: 164%
Activity [21]: Non-Toxic
Activity [22]: Non-Toxic
Activity [23]: Non-Toxic
Activity [24]: Non-Toxic
Activity [25]: Non-Toxic
Activity [26]: Non-Toxic
Ratio EC50 [27]: 36
Ratio EC50 [28]: 3319
Ratio EC50 [29]: 2
